Measured values: PubChem BioAssay (NCI)
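Method: 48-hour compound exposure of cells in 96-well plates, five concentrations, linear interpolation of endpoints. Abbreviation: GI50, concentration required for 50% inhibition of growth. TGI denotes the concentration required for complete inhibition of growth.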

Key:
Test in all cases: inhibition of tumour cell growth, NCI panel, 48 h
[1] = tested on: MDA-MB-435
[2] = tested on: OVCAR-8 ovarian
[3] = tested on: HL-60(TB) leukemia
[4] = tested on: HS 578T breast
[5] = tested on: UO-31 renal
[6] = tested on: K-562 leukemia
[7] = tested on: SF-539 CNS
[8] = tested on: SR leukemia

Row | Structure (SMILES) | GI50 [1] | TGI [1] | GI50 [2] | TGI [2] | GI50 [3] | TGI [3] | GI50 [4] | TGI [4] | GI50 [5] | TGI [5] | GI50 [6] | TGI [6] | GI50 [7] | TGI [7] | GI50 [8] | TGI [8]
1 | Nc1ncc(-c2cccc(S(N)(=O)=O)c2)c2scc(-c3ccc(F)c(Cl)c3)c12 | 4.68 µM | 10.1 µM | 6.38 µM | > 22.6 µM | 4.76 µM | 11.7 µM | 7.23 µM | 22 µM | 2.22 µM | 21 µM | 0.705 µM | > 11.7 µM | 5.27 µM | 13.2 µM | 7.12 µM | > 15.9 µM
2 | C[C@@H](Nc1nc(Nc2ccc(F)c(Cl)c2)nc2ccccc12)C1CC1 | 3.93 µM | 15 µM | 3.58 µM | 20.5 µM | 2.45 µM | 6.32 µM | 6.02 µM | 25.6 µM | 2.62 µM | 14 µM | 2.82 µM | 9.75 µM | 3.16 µM | 12.4 µM | 1.63 µM | 5.26 µM
3 | CC(C)(C)c1ccc(NS(=O)(=O)c2ccc3nc(NC(=O)c4cnccn4)[nH]c3c2)cc1 | 0.346 µM | 1.53 µM | 5.78 µM | 38.8 µM | 3.67 µM | 15.7 µM | 2.66 µM | 13.2 µM | 2.08 µM | 10.7 µM | 2.38 µM | > 100 µM | 1.95 µM | 4.96 µM | 0.68 µM | > 100 µM
4 | C[C@@H]1COCCN1c1cc(C2(O)C[C@H]3CC[C@@H](C2)O3)c2cnn(-c3ccn[nH]3)c2n1 (stereo partly drawn) | 0.0685 µM | 0.692 µM | 0.145 µM | 1.56 µM | 0.172 µM |  | 0.0479 µM | 0.556 µM | 0.0427 µM | 0.554 µM | 0.063 µM | > 100 µM | 0.023 µM | 0.0946 µM | 0.0112 µM | 26.9 µM
5 | Cc1ccc(-c2cc(O)c(-c3ccc(C)cc3C)cc2O)c(C)c1 | 6.98 µM | 45.1 µM | 4.04 µM | 22.2 µM | 10.3 µM | > 100 µM | 12.7 µM | 61.9 µM | 4.96 µM | 22.4 µM | 5.1 µM | > 100 µM | 10.7 µM | 23.2 µM | 3.57 µM | 74.9 µM
6 | CC[C@H](C)C(=O)O[C@H]1C[C@H](O)C=C2C=C[C@H](C)[C@H](CC[C@@H](O)C[C@@H](O)CC(=O)O)[C@H]21 | > 100 µM | > 100 µM | > 100 µM | > 100 µM | > 100 µM | > 100 µM | > 100 µM | > 100 µM | > 100 µM | > 100 µM | > 100 µM | > 100 µM | > 100 µM | > 100 µM | > 100 µM | > 100 µM
7 | COc1ccc2ccc3oc([N+](=O)[O-])cc3c2c1 | 0.116 µM | 0.247 µM | 0.216 µM | 3.27 µM |  |  | 0.297 µM | 1.44 µM |  |  | 0.259 µM | > 100 µM | 0.275 µM | 1.07 µM | 0.0827 µM | 11.7 µM
8 | O=[N+]([O-])c1cccc2nccc(NCCCO)c12 |  | 26.9 µM |  | 37.3 µM |  | 36.8 µM |  | 43.3 µM |  | 35.3 µM |  | 49.3 µM |  | 29.4 µM |  | 44.2 µM
9 | CC1(C)C(=O)/C(=C\c2cccnc2)C[C@]2(C)[C@H]3CC[C@@H]4[C@@H](C(=O)/C=C/c5ccncc5)CC[C@@]4(C)[C@]3(C)CC[C@@H]12 | 1.98 µM | 4.77 µM | 2.34 µM | 10.3 µM | 1.78 µM | 6.35 µM | 2.78 µM | 7.93 µM | 1.67 µM | 3.04 µM | 1.2 µM | > 100 µM | 1.76 µM | 3.25 µM | 1.68 µM | 9.81 µM
10 | C=CC1=C(C)C2=NC1=CC1=NC(=C(CC)/C1=C\O)C=C1N=C3C(=C1C)C(=O)[C@H](C(=O)OC)C3=C1NC(=C2)[C@@H](C)[C@@H]1CCC(=O)O |  | > 100 µM |  | > 100 µM |  | 92.3 µM |  | > 100 µM |  | > 100 µM |  | > 100 µM |  | > 100 µM |  | 
11 | Cc1c(Cl)cccc1NC(=O)c1sc2nc3c(cc2c1N)CCCCC3 | 0.104 µM | 0.317 µM | 0.825 µM | > 50 µM | 0.143 µM | 0.484 µM | 0.227 µM | > 50 µM | 1.65 µM | > 50 µM | 0.166 µM | > 50 µM | 0.171 µM | 9.07 µM | 0.174 µM | > 50 µM
12 | CCCCCn1c(C)cc(/C=C\c2ccc3cc(C)ccc3[n+]2C)c1C | 0.116 µM | 1.09 µM |  |  | 0.0296 µM | 0.128 µM | 0.166 µM | 1.75 µM | 0.212 µM | 0.502 µM | 0.0341 µM | 1.11 µM | 0.241 µM | 1.06 µM |  | 
13 | O=c1oc2c(C(F)(F)F)cccc2cc1-c1csc(Nc2ccc(OCCF)cc2)n1 | 0.0324 µM | > 100 µM | 0.0393 µM | 7.66 µM | 0.0248 µM | 0.0573 µM | 0.051 µM | > 69.4 µM | 0.0785 µM | 22.5 µM | 0.0348 µM | > 100 µM | 0.0248 µM | 0.07 µM | 0.0383 µM | > 43.6 µM
14 | CCN1CCC(O)(/C=C/c2ccc(OC)cc2)C(C(=O)/C=C/c2ccc(OC)cc2)C1 (stereo not drawn) |  | 19 µM |  |  |  | 52.2 µM |  |  |  | 21.5 µM |  | 12.2 µM |  | 27.8 µM |  | 26.4 µM
15 | CCN(CC)c1ccc(/C=C/C=C2\NC(=O)NC2=O)cc1 |  |  | 6.21 µM | 66.6 µM | 3.06 µM | > 100 µM | 3.91 µM | 42.6 µM | 7.97 µM | > 100 µM | 3.7 µM | > 100 µM | 2.33 µM | 8.6 µM | 0.446 µM | > 100 µM
16 | CC(=O)c1nc2ccccc2n1CC(=O)c1cccc(Cl)c1 |  |  | 0.873 µM | > 100 µM | 0.144 µM | 0.61 µM |  |  | 1.27 µM | > 100 µM | 0.113 µM | > 44.1 µM | 0.33 µM | 2.25 µM | 0.121 µM | 1.48 µM
17 | COC(=O)C(C)NC(=O)c1ccccc1I(OS(=O)(=O)C(F)(F)F)c1ccccc1 (stereo not drawn) | > 41.3 µM | > 57.1 µM | 36.3 µM | > 100 µM |  |  | 19.6 µM | 47.9 µM | 21.3 µM | 42.1 µM | > 42.4 µM | > 63.7 µM | 22.7 µM | 45.6 µM |  | 
18 | CC(=O)/C(=C/N1CCNC1=S)C(=O)Nc1ccccc1C |  | > 100 µM |  | > 100 µM |  |  |  | > 100 µM |  | > 100 µM |  | > 100 µM |  | > 100 µM |  | > 100 µM
